The source made the active and inactive calls. The rule behind the calls is not given here.
Tested on: CCRIS mutagenicity, Ames/micronucleus/aberration tests
Assay: CCRIS mutagenicity studies
[1] = Test System: AMES SALMONELLA TYPHIMURIUM, Strain/Indicator: TA98, Metabolic Activation: RAT, LIVER, S-9, AROCLOR 1254, Method: STANDARD PLATE
[2] = Test System: AMES SALMONELLA TYPHIMURIUM, Strain/Indicator: TA98, Metabolic Activation: NONE, Method: STANDARD PLATE

## ClC(Cl)(Cl)Cl
End Point: IN VITRO CHROMOSOMAL ABERRATIONS, Test System: CHO-LB CELLS, Metabolic Activation: NONE
  mutagenic call: inactive; negative
End Point: IN VITRO CHROMOSOMAL ABERRATIONS, Test System: CHO-LB CELLS, Metabolic Activation: RAT, LIVER, S-9, AROCLOR 1254
  mutagenic call: inactive; negative
End Point: IN VIVO MICRONUCLEUS, Test System: BONE MARROW POLYCHROMATIC ERYTHROCYTES, Species: MOUSE, Strain/Sex: MALE, Route: IP INJECTION
  mutagenic call: active; positive
End Point: In vitro chromosomal aberrations, Test System: Chinese hamster lung (CHL/IU) cells, Metabolic Activation: Rat, Liver, S9, Phenobarbital and 5,6-benzoflavone
  mutagenic call: inactive; negative
Test System: AMES SALMONELLA TYPHIMURIUM, Strain/Indicator: TA97, Metabolic Activation: HAMSTER, LIVER, S-9, AROCLOR 1254 (10%), Method: PREINCUBATION
  mutagenic call: inactive; negative
Test System: AMES SALMONELLA TYPHIMURIUM, Strain/Indicator: TA97, Metabolic Activation: HAMSTER, LIVER, S-9, AROCLOR 1254 (30%), Method: PREINCUBATION
  mutagenic call: inactive; negative
Test System: AMES SALMONELLA TYPHIMURIUM, Strain/Indicator: TA97, Metabolic Activation: NONE, Method: PREINCUBATION
  mutagenic call: inactive; negative
Test System: AMES SALMONELLA TYPHIMURIUM, Strain/Indicator: TA97, Metabolic Activation: NONE, Method: STANDARD PLATE
  mutagenic call: inactive; negative
Test System: AMES SALMONELLA TYPHIMURIUM, Strain/Indicator: TA97, Metabolic Activation: RAT, LIVER, S-9, AROCLOR 1254 (10%), Method: PREINCUBATION
  mutagenic call: inactive; negative
Test System: AMES SALMONELLA TYPHIMURIUM, Strain/Indicator: TA97, Metabolic Activation: RAT, LIVER, S-9, AROCLOR 1254 (30%), Method: PREINCUBATION
  mutagenic call: inactive; negative
Test System: AMES SALMONELLA TYPHIMURIUM, Strain/Indicator: TA97, Metabolic Activation: RAT, LIVER, S-9, AROCLOR 1254, Method: STANDARD PLATE
  mutagenic call: inactive; negative
Test System: AMES SALMONELLA TYPHIMURIUM, Strain/Indicator: TA98, Metabolic Activation: HAMSTER, LIVER, S-9, AROCLOR 1254 (10%), Method: PREINCUBATION
  mutagenic call: inactive; negative
Test System: AMES SALMONELLA TYPHIMURIUM, Strain/Indicator: TA98, Metabolic Activation: HAMSTER, LIVER, S-9, AROCLOR 1254 (30%), Method: PREINCUBATION
  mutagenic call: inactive; negative
Test System: AMES SALMONELLA TYPHIMURIUM, Strain/Indicator: TA98, Metabolic Activation: NONE, Method: GAS EXPOSURE
  mutagenic call: active; positive
Test System: AMES SALMONELLA TYPHIMURIUM, Strain/Indicator: TA98, Metabolic Activation: NONE, Method: PREINCUBATION
  mutagenic call: inactive; negative
Test System: AMES SALMONELLA TYPHIMURIUM, Strain/Indicator: TA98, Metabolic Activation: RAT LIVER S-9, PHENOBARBITOL AND 5,6-BENZOFLAVONE, Method: GAS EXPOSURE
  mutagenic call: inactive; negative
Test System: AMES SALMONELLA TYPHIMURIUM, Strain/Indicator: TA98, Metabolic Activation: RAT, LIVER, S-9, AROCLOR 1254 (10%), Method: PREINCUBATION
  mutagenic call: inactive; negative
Test System: AMES SALMONELLA TYPHIMURIUM, Strain/Indicator: TA98, Metabolic Activation: RAT, LIVER, S-9, AROCLOR 1254 (30%), Method: PREINCUBATION
  mutagenic call: inactive; negative
[1]
  mutagenic call: inactive; negative
Test System: AMES SALMONELLA TYPHIMURIUM, Strain/Indicator: TA100, Metabolic Activation: HAMSTER, LIVER, S-9, AROCLOR 1254 (10%), Method: PREINCUBATION
  mutagenic call: inactive; negative
Test System: AMES SALMONELLA TYPHIMURIUM, Strain/Indicator: TA100, Metabolic Activation: HAMSTER, LIVER, S-9, AROCLOR 1254 (30%), Method: PREINCUBATION
  mutagenic call: inactive; negative
Test System: AMES SALMONELLA TYPHIMURIUM, Strain/Indicator: TA100, Metabolic Activation: NONE, Method: PREINCUBATION
  mutagenic call: inactive; negative
Test System: AMES SALMONELLA TYPHIMURIUM, Strain/Indicator: TA100, Metabolic Activation: RAT, LIVER, S-9, AROCLOR 1254 (10%), Method: PREINCUBATION
  mutagenic call: inactive; negative
Test System: AMES SALMONELLA TYPHIMURIUM, Strain/Indicator: TA100, Metabolic Activation: RAT, LIVER, S-9, AROCLOR 1254 (30%), Method: PREINCUBATION
  mutagenic call: inactive; negative
Test System: AMES SALMONELLA TYPHIMURIUM, Strain/Indicator: TA1535, Metabolic Activation: HAMSTER, LIVER, S-9, AROCLOR 1254 (10%), Method: PREINCUBATION
  mutagenic call: inactive; negative
Test System: AMES SALMONELLA TYPHIMURIUM, Strain/Indicator: TA1535, Metabolic Activation: HAMSTER, LIVER, S-9, AROCLOR 1254 (30%), Method: PREINCUBATION
  mutagenic call: inactive; negative
Test System: AMES SALMONELLA TYPHIMURIUM, Strain/Indicator: TA1535, Metabolic Activation: NONE, Method: PREINCUBATION
  mutagenic call: inactive; negative
Test System: AMES SALMONELLA TYPHIMURIUM, Strain/Indicator: TA1535, Metabolic Activation: NONE, Method: STANDARD PLATE
  mutagenic call: inactive; negative
Test System: AMES SALMONELLA TYPHIMURIUM, Strain/Indicator: TA1535, Metabolic Activation: RAT, LIVER, S-9, AROCLOR 1254 (10%), Method: PREINCUBATION
  mutagenic call: inactive; negative
Test System: AMES SALMONELLA TYPHIMURIUM, Strain/Indicator: TA1535, Metabolic Activation: RAT, LIVER, S-9, AROCLOR 1254 (30%), Method: PREINCUBATION
  mutagenic call: inactive; negative
Test System: AMES SALMONELLA TYPHIMURIUM, Strain/Indicator: TA1535, Metabolic Activation: RAT, LIVER, S-9, AROCLOR 1254, Method: STANDARD PLATE
  mutagenic call: active; positive
Test System: AMES SALMONELLA TYPHIMURIUM, Strain/Indicator: TA1537, Metabolic Activation: HAMSTER, LIVER, S-9, AROCLOR 1254 (10 OR 30%), Method: PREINCUBATION
  mutagenic call: inactive; negative
Test System: AMES SALMONELLA TYPHIMURIUM, Strain/Indicator: TA1537, Metabolic Activation: NONE, Method: PREINCUBATION
  mutagenic call: inactive; negative
Test System: AMES SALMONELLA TYPHIMURIUM, Strain/Indicator: TA1537, Metabolic Activation: NONE, Method: STANDARD PLATE
  mutagenic call: active; positive
Test System: AMES SALMONELLA TYPHIMURIUM, Strain/Indicator: TA1537, Metabolic Activation: RAT, LIVER, S-9, AROCLOR 1254 (10 OR 30%), Method: PREINCUBATION
  mutagenic call: inactive; negative
Test System: Ames Salmonella typhimurium, Strain/Indicator: TA98, Metabolic Activation: None, Method: Gas exposure method
  mutagenic call: active; positive
Test System: Ames Salmonella typhimurium, Strain/Indicator: TA98, Metabolic Activation: Rat, Liver, S9, Sodium phenobarbital and 5,6-benzoflavone (10%), Method: Gas exposure method
  mutagenic call: inactive; negative
Test System: Ames Salmonella typhimurium, Strain/Indicator: TA100, Metabolic Activation: None, Method: Gas exposure method
  mutagenic call: inactive; negative
Test System: Ames Salmonella typhimurium, Strain/Indicator: TA100, Metabolic Activation: Rat, Liver, S9, Sodium phenobarbital and 5,6-benzoflavone (10%), Method: Gas exposure method
  mutagenic call: inactive; negative
Test System: Ames Salmonella typhimurium, Strain/Indicator: TA1535, Metabolic Activation: None, Method: Gas exposure method
  mutagenic call: inactive; negative
Test System: Ames Salmonella typhimurium, Strain/Indicator: TA1535, Metabolic Activation: Rat, Liver, S9, Sodium phenobarbital and 5,6-benzoflavone (10%), Method: Gas exposure method
  mutagenic call: inactive; negative
Test System: Ames Salmonella typhimurium, Strain/Indicator: TA1537, Metabolic Activation: None, Method: Gas exposure method
  mutagenic call: inactive; negative
Test System: Ames Salmonella typhimurium, Strain/Indicator: TA1537, Metabolic Activation: Rat, Liver, S9, Sodium phenobarbital and 5,6-benzoflavone (10%), Method: Gas exposure method
  mutagenic call: inactive; negative
Test System: E. COLI, Strain/Indicator: WP2UVRA/PKM101, Metabolic Activation: NONE, Method: GAS EXPOSURE
  mutagenic call: active; positive
Test System: E. COLI, Strain/Indicator: WP2UVRA/PKM101, Metabolic Activation: RAT LIVER S-9, PHENOBARBITOL AND 5,6-BENZOFLAVONE, GLUTATHIONE-SUPPLEMENTED, Method: GAS EXPOSURE
  mutagenic call: active; positive
Test System: E. COLI, Strain/Indicator: WP2UVRA/PKM101, Metabolic Activation: RAT LIVER S-9, PHENOBARBITOL AND 5,6-BENZOFLAVONE, Method: GAS EXPOSURE
  mutagenic call: active; positive
Test System: MOUSE LYMPHOMA, Strain/Indicator: L5178Y (TK+/TK-), Metabolic Activation: RAT, LIVER, S-9, AROCLOR 1254, Method: SUSPENSION/PLATE
  mutagenic call: inactive; negative
Test System: UDS RAT HEPATOCYTES, Strain/Indicator: BROMODEOXYURIDINE INCORP, Metabolic Activation: NONE, Method: FLOW CYTOMETRIC ANALYSIS
  mutagenic call: inactive; negative
Test System: UDS RAT HEPATOCYTES, Strain/Indicator: THY INCORP, Metabolic Activation: NONE, Method: AUTORADIOGRAPHY
  mutagenic call: inactive; negative

## O=C(O)Nc1ccccc1
[2]
  mutagenic call: inactive; negative
[1]
  mutagenic call: inactive; negative
Test System: AMES SALMONELLA TYPHIMURIUM, Strain/Indicator: TA100, Metabolic Activation: NONE, Method: STANDARD PLATE
  mutagenic call: inactive; negative
Test System: AMES SALMONELLA TYPHIMURIUM, Strain/Indicator: TA100, Metabolic Activation: RAT, LIVER, S-9, AROCLOR 1254, Method: STANDARD PLATE
  mutagenic call: inactive; negative

## [O-][N+](=Nc1ccc2c(c1)Cc1ccccc1-2)c1ccc2c(c1)Cc1ccccc1-2
[2]
  mutagenic call: inactive; negative
[1]
  mutagenic call: inactive; negative
